Test results published in patent US9133168B2, “Pyrimidine derivatives, preparation thereof, and pharmaceutical use thereof as akt(pkb) phosphorylation inhibitors” (SANOFI, priority 2010, dated 2015).

Tested on: AKT protein phosphorylated on serine 473 (P-AKT-S473) in PC3 human prostate carcinoma cells
Assay: pAKT expression in PC3 human prostate carcinoma cells, MSD Multi-spot Biomarker detection (Test A)
Assay type: cell-based
Conditions: 1 to 2 h incubation, P-AKT-S473, absolute IC50, mean of two independent experiments
Method in brief: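 Lysate pAKT-S473 measured by electrochemiluminescent sandwich immunoassay; inhibition versus cell-free background and DMSO-only wells, IC50 averaged over two experiments.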

| SMILES | IC50 (Homo sapiens, PC-3, PC3 cells) [nM] | IC50 (PC3 cells) [nM] | further results |
| --- | --- | --- | --- |
| CN1CCN(c2cccc3c2CCN3C(=O)Cc2nc(N3CCOCC3)cc(=O)[nH]2)CC1 [Example 26d, 2-{2-[4-(4-methylpiperazin-1-yl)-2,3-dihydro-1H-indol-1-yl]-2-oxoethyl}-6-(morpholin-4-yl)pyrimidin-4(3H)-one] | 167 | – | – |
| O=C(Cc1nc(N2CCOCC2)cc(=O)[nH]1)N1CCc2c(-c3ccncc3)cccc21 [Example 10d, 6-(morpholin-4-yl)-2-{2-oxo-2-[4-(pyridin-4-yl)-2,3-dihydro-1H-indol-1-yl]ethyl}pyrimidin-4(3H)-one] | 94 | – | – |
| O=C(Cc1nc(N2CCOC(CF)C2)cc(=O)[nH]1)N1CCc2c(F)cccc21 (stereo not drawn) [Example 6b, 2-[2-(4-fluoro-2,3-dihydroindol-1-yl)-2-oxoethyl]-6-(2-fluoromethylmorpholin-4-yl)-3H-pyrimidin-4-one] | – | 58 | – |
| O=C(Cc1nc(N2CCOC(CF)C2)cc(=O)[nH]1)Nc1ccc(F)cc1 (single isomer, unassigned; (+)) [Example 4b, (+)-N-(4-fluorophenyl)-2-[4-(2-fluoromethylmorpholin-4-yl)-6-oxo-1,6-dihydropyrimidin-2-yl]acetamide] | – | 118 | – |
| Cn1c(CC(=O)N2CC3(CCNCC3)c3ccccc32)nc(N2CCOCC2)cc1=O [Example 23d, 3-methyl-6-(morpholin-4-yl)-2-[2-oxo-2-(spiro[indole-3,4′-piperidin]-1(2H)-yl)ethyl]pyrimidin-4(3H)-one] | 196 | – | – |
| O=C(Cc1nc(N2CCOCC2)cc(=O)[nH]1)N1c2ccccc2CC1c1ccc(F)cc1 (single isomer, unassigned; (+)) [Example 27d, (+)-2-{2-[2-(4-fluorophenyl)-2,3-dihydro-1H-indol-1-yl]-2-oxoethyl}-6-(morpholin-4-yl)pyrimidin-4(3H)-one] | – | – | IC50 (PC3 cells, listed as 27): 435 nM |
| O=C(Cc1nc(N2CCOCC2)cc(=O)n1-c1ccccc1)N1CCc2ccccc21 [Example 39d, 2-[2-(2,3-Dihydroindol-1-yl)-2-oxoethyl]-6-morpholin-4-yl-3-phenyl-3H-pyrimidin-4-one] | 51 | – | – |
| O=C(Cc1nc(N2CCOC(CO)C2)cc(=O)[nH]1)N1CCc2c(Cl)cccc21 (single isomer, unassigned; (-)) [Example 25b, (−)-2-[2-(4-Chloro-2,3-dihydroindol-1-yl)-2-oxoethyl]-6-(2-hydroxymethylmorpholin-4-yl)-3H-pyrimidin-4-one] | – | 27 | – |
| Cc1cc(-c2cc(=O)[nH]c(CC(=O)N3CCc4c(F)cccc43)n2)ccn1 [Example 23b, 2-[2-(4-fluoro-2,3-dihydroindol-1-yl)-2-oxoethyl]-6-(2-methylpyridin-4-yl)-3H-pyrimidin-4-one] | 244 | – | – |
| CC1Cc2c(Br)cccc2N1C(=O)Cc1nc(N2CCOCC2)c(F)c(=O)n1C (stereo not drawn) [Example 30a, 5-fluoro-2-[2-((+)-4-bromo-2-methyl-2,3-dihydroindol-1-yl)-2-oxoethyl]-3-methyl-6-morpholin-4-yl-3H-pyrimidin-4-one] | 16 | – | – |
| CC1CN(c2cc(=O)[nH]c(CC(=O)Nc3ccc(F)cc3)n2)CCO1 (stereo not drawn) [Example 1b, N-(4-fluorophenyl)-2-[4-(2-methylmorpholin-4-yl)-6-oxo-1,6-dihydropyrimidin-2-yl]acetamide] | – | 26 | – |
| O=C(Cc1nc(N2CCOCC2)cc(=O)n1C1CC1)N1CCc2c(Cl)cccc21 [Example 15d, 2-[2-(4-chloro-2,3-dihydro-1H-indol-1-yl)-2-oxoethyl]-3-cyclopropyl-6-(morpholin-4-yl)pyrimidin-4(3H)-one] | 37 | – | – |
| Cn1c(CC(=O)N2CCc3c(OC(F)F)cccc32)nc(N2CCOCC2)cc1=O [Example 8d, 2-{2-[4-(difluoromethoxy)-2,3-dihydro-1H-indol-1-yl]-2-oxoethyl}-3-methyl-6-(morpholin-4-yl)pyrimidin-4(3H)-one] | 60 | – | – |
| O=C(Cc1nc(N2CCOCC2)cc(=O)[nH]1)N1CCc2c(N3CCOCC3)cccc21 [Example 33d, 6-(morpholin-4-yl)-2-{2-[4-(morpholin-4-yl)-2,3-dihydro-1H-indol-1-yl]-2-oxoethyl}pyrimidin-4(3H)-one] | 111 | – | – |

Further lines, with some results ahead:

| IC50 (Homo sapiens, PC-3, PC3 cells) [nM] | IC50 (PC3 cells) [nM] | SMILES | further results |
| --- | --- | --- | --- |
| – | 2 | CC1Cc2cc(F)c(F)cc2N1C(=O)Cc1nc(N2CCOCC2)cc(=O)[nH]1 (stereo not drawn) [Example 22c] | – |
| 57 | – | CC1CN(C(=O)Cc2nc(N3CCOCC3)cc(=O)[nH]2)c2cccc(O)c21 (single isomer, unassigned; (-)) [Example 12c, (−)-2-{2-[4-hydroxy-3-methyl-2,3-dihydro-1H-indol-1-yl]-2-oxoethyl}-6-(morpholin-4-yl)pyrimidin-4(3H)-one] | – |
| 11 | – | CC1Cc2c(ccc(F)c2F)N1C(=O)Cc1nc(N2CCOCC2)c(F)c(=S)[nH]1 (stereo not drawn) [Example 8e, 1-((+)-4,5-Difluoro-2-methyl-2,3-dihydroindol-1-yl)-2-(5-fluoro-4-morpholin-4-yl-6-thioxo-1,6-dihydropyrimidin-2-yl)ethanone] | – |
| – | 4 | CC1Cc2c(F)cccc2N1C(=O)Cc1nc(N2CCOCC2)cc(=O)[nH]1 (single isomer, unassigned; (-)) [Example 27c, (−)-2-{2-[4-fluoro-2-methyl-2,3-dihydro-1H-indol-1-yl]-2-oxoethyl}-6-(morpholin-4-yl)pyrimidin-4(3H)-one] | – |
| 23 | – | O=C(Cc1nc(N2CCOCC2)cc(=O)[nH]1)N1CCc2c(-c3ccccc3F)cccc21 [Example 19d, 2-{2-[4-(2-fluorophenyl)-2,3-dihydro-1H-indol-1-yl]-2-oxoethyl}-6-(morpholin-4-yl)pyrimidin-4(3H)-one] | – |
| – | 2 | CC1Cc2c(cccc2C(F)(F)F)N1C(=O)Cc1nc(N2CCOCC2)cc(=O)[nH]1 (single isomer, unassigned; (-)) [Example 37d, (−)-2-{2-[2-methyl-4-(trifluoromethyl)-2,3-dihydro-1H-indol-1-yl]-2-oxoethyl}-6-(morpholin-4-yl)pyrimidin-4(3H)-one] | – |
| 55 | – | CC1Cc2cc(F)ccc2N1C(=O)Cc1nc(N2CCOCC2)c(F)c(=O)n1C (stereo not drawn) [Example 14a, 5-fluoro-2-[2-((−)-5-fluoro-2-methyl-2,3-dihydroindol-1-yl)-2-oxoethyl]-3-methyl-6-morpholin-4-yl-3H-pyrimidin-4-one] | – |
| – | 242 | CC1Cc2c(Cl)cccc2N1C(=O)Cc1nc(N2CCOCC2)cc(=O)n1C (single isomer, unassigned; (-)) [Example 34c, (−)-2-{2-[4-chloro-2-methyl-2,3-dihydro-1H-indol-1-yl]-2-oxoethyl}-3-methyl-6-(morpholin-4-yl)pyrimidin-4(3H)-one] | – |
| 55 | – | C[C@@H]1Cc2ccccc2N1C(=O)Cc1nc(N2CCOCC2)c(Cl)c(=O)[nH]1 [Example 36a, 5-chloro-2-[2-((R)-2-methyl-2,3-dihydroindol-1-yl)-2-oxoethyl]-6-morpholin-4-yl-3H-pyrimidin-4-one] | – |
| – | 203 | CC1Cc2c(F)cccc2N1C(=O)Cc1nc(N2CCOCC2)c(F)c(=O)n1C (stereo not drawn) [Example 23a, 5-fluoro-2-[2-((−)-4-fluoro-2-methyl-2,3-dihydroindol-1-yl)-2-oxoethyl]-3-methyl-6-morpholin-4-yl-3H-pyrimidin-4-one] | – |
| – | 3 | CC1Cc2c(Br)cccc2N1C(=O)Cc1nc(N2CCOCC2)cc(=O)[nH]1 (single isomer, unassigned; (-)) [Example 26c, (−)-2-{2-[4-bromo-2-methyl-2,3-dihydro-1H-indol-1-yl]-2-oxoethyl}-6-(morpholin-4-yl)pyrimidin-4(3H)-one] | – |
| – | 10 | CC1Cc2cc(F)ccc2N1C(=O)Cc1nc(N2CCOCC2)c(F)c(=O)[nH]1 (stereo not drawn) [Example 6a, 5-fluoro-2-[2-((+)-5-fluoro-2-methyl-2,3-dihydroindol-1-yl)-2-oxoethyl]-6-morpholin-4-yl-3H-pyrimidin-4-one] | – |
| – | 36 | CC1Cc2c(Br)cccc2N1C(=O)Cc1nc(N2CCOCC2)cc(=O)n1C (single isomer, unassigned; (+)) [Example 31c, (+)-2-{2-[4-bromo-2-methyl-2,3-dihydro-1H-indol-1-yl]-2-oxoethyl}-3-methyl-6-(morpholin-4-yl)pyrimidin-4(3H)-one] | – |
| – | 1 | CC1Cc2c(Cl)cccc2N1C(=O)Cc1nc(N2CCOCC2)cc(=O)[nH]1 (single isomer, unassigned; (-)) [Example 3c, (−)-2-{2-[4-chloro-2-methyl-2,3-dihydro-1H-indol-1-yl]-2-oxoethyl}-6-(morpholin-4-yl)pyrimidin-4(3H)-one] | – |
| – | 13 | CC1Cc2c(ccc(F)c2F)N1C(=O)Cc1nc(N2CCOCC2)cc(=O)n1C (single isomer, unassigned; (-)) [Example 20c, (−)-2-{2-[4,5-difluoro-2-methyl-2,3-dihydro-1H-indol-1-yl]-2-oxoethyl}-3-methyl-6-(morpholin-4-yl)pyrimidin-4(3H)-one] | – |
| 56 | – | C[C@H]1Cc2ccccc2N1C(=O)Cc1nc(N2CCOCC2)c(Br)c(=O)[nH]1 [Example 37a, 5-bromo-2-[2-((S)-2-methyl-2,3-dihydroindol-1-yl)-2-oxoethyl]-6-morpholin-4-yl-3H-pyrimidin-4-one] | – |
| – | 22 | CC1Cc2c(O)cccc2N1C(=O)Cc1nc(N2CCOCC2)cc(=O)[nH]1 (single isomer, unassigned; (-)) [Example 10c, (−)-2-{2-[4-hydroxy-2-methyl-2,3-dihydro-1H-indol-1-yl]-2-oxoethyl}-6-(morpholin-4-yl)pyrimidin-4(3H)-one] | – |
| – | 98 | CC1Cc2c(F)cccc2N1C(=O)Cc1nc(N2CCOCC2)c(F)c(=O)n1C (stereo not drawn) [Example 22a, 5-fluoro-2-[2-((+)-4-fluoro-2-methyl-2,3-dihydroindol-1-yl)-2-oxoethyl]-3-methyl-6-morpholin-4-yl-3H-pyrimidin-4-one] | – |
| – | 114 | CC1Cc2cc(F)c(F)cc2N1C(=O)Cc1nc(N2CCOCC2)cc(=O)n1C (stereo not drawn) [Example 24c, 2-{2-[(+)-5,6-difluoro-2-methyl-2,3-dihydro-1H-indol-1-yl]-2-oxoethyl}-3-methyl-6-(morpholin-4-yl)pyrimidin-4(3H)-one] | – |
